From patent publication US11091478B2 (Fochon Pharmaceuticals, Ltd., priority 2017, dated 2021)

test system: DOHH2 cells; assay: Cell proliferation assay (MTS), DOHH2 cells, 120 h; format: cell-based; details: Homo sapiens, DOHH-2, 120 h
Description: Cell Proliferation Assays
MTS testing kit was purchased from Promega. The RPMI-1640, Fetal bovine serum and Penicillin-Streptomycin were purchased from Gibco. Dimethyl sulfoxide (DMSO) was purchased from Sigma.
To investigate whether a compound is able to inhibit the activity of BCL-2 in cells, a mechanism-based assay using DOHH2 (DSMZ No.® ACC 47) and RS4;11 (ATCC® CRL-1873™) cell was developed. In this assay, inhibition of Bcl-2 was detected by the inhibition of DOHH2 cells proliferation. DOHH2 cells were cultured in culture flasks to 40-80% confluence in RPMI-1640 plus 10% fetal bovine serum. Cells were collected and plated onto 96-well plates at desired cell density (5000 cells/well). Plates were incubated overnight at 37° C., with 5% CO2 to adhere. Compounds were added to the plates, and the final compound concentrations were 10000, 3333, 1111, […], 124, 41, 14, 4.6 and 1.5 nM. Plates plated with DOHH2 or RS4;11 cells were placed at 37° C., with 5% CO2 for 120 h (DOHH2) or 72 h (RS4;11) respectively. 20 μl MTS/100 μl medium mixture solution were added to each well and incubate the plates for exactly 2 hours. The reaction was stopped by adding 25 μl 10% SDS per well. Measure absorbance at 490 nm and 650 nm (reference wavelength). IC50 was calculated using GraphPad Prism 5.0.
Select compounds prepared as described above were assayed according to the biological procedures described herein.

| Compound | IC50 |
| --- | --- |
| CC1(C)CCC(CN2CCN(c3ccc(C(=O)NS(=O)(=O)c4cc5c(c([N+](=O)[O-])c4)N[C@H](c4ccccc4)CO5)c(Oc4cnc5[nH]ccc5c4)c3)CC2)=C(c2ccc(Cl)cc2)C1 [Example 2-165, (R)-2-((1H-pyrrolo[2,3-b]pyridin-5-yl)oxy)-4-(4-((4′-chloro-5,5-dimethyl-3,4,5,6-tetra-hydro-[1,1′-biphenyl]-2-yl)methyl)piperazin-1-yl)-N-((5-nitro-3-phenyl-3,4-dihydro-2H-benzo[b][1,4]oxazin-7-yl)sulfonyl)benza-mide] | 77 nM |
| CC1(C)CCC(CN2CCN(c3ccc(C(=O)NS(=O)(=O)c4cc5c(c([N+](=O)[O-])c4)N[C@H](c4ccc(Cl)cc4)CO5)c(Oc4cnc5[nH]ccc5c4)c3)CC2)=C(c2ccc(Cl)cc2)C1 [Example 2-167, (R)-2-((1H-pyrrolo[2,3-b]pyridin-5-yl)oxy)-4-(4-((4′-chloro-5,5-dimethyl-3,4,5,6-tetra-hydro-[1,1′-biphenyl]-2-yl)methyl)piperazin-1-yl)-N-((3-(4-chlorophenyl)-5-nitro-3,4-dihydro-2H-benzo[b][1,4]oxazin-7-yl)sulfo-nyl)benzamide] | 29 nM |
| COc1ccc([C@@H]2COc3cc(S(=O)(=O)NC(=O)c4ccc(N5CCN(CC6=C(c7ccc(Cl)cc7)CC(C)(C)CC6)CC5)cc4Oc4cnc5[nH]ccc5c4)cc([N+](=O)[O-])c3N2)cc1 [Example 2-169, (R)-2-((1H-pyrrolo[2,3-b]pyridin-5-yl)oxy)-4-(4-((4′-chloro-5,5-dimethyl-3,4,5,6-tetra-hydro-[1,1′-biphenyl]-2-yl)methyl)piperazin-1-yl)-N-((3-(4-methoxyphenyl)-5-nitro-3,4-dihydro-2H-benzo[b][1,4]oxazin-7-yl)sulfonyl)benzamide] | 39 nM |
| CC1(C)CCC(CN2CCN(c3ccc(C(=O)NS(=O)(=O)c4cc5c(c([N+](=O)[O-])c4)N[C@H](c4ccc(C#N)cc4)CO5)c(Oc4cnc5[nH]ccc5c4)c3)CC2)=C(c2ccc(Cl)cc2)C1 [Example 2-170, (R)-2-((1H-pyrrolo[2,3-b]pyridin-5-yl)oxy)-4-(4-((4′-chloro-5,5-dimethyl-3,4,5,6-tetra-hydro-[1,1′-biphenyl]-2-yl)methyl)piperazin-1-yl)-N-((3-(4-cyanophenyl)-5-nitro-3,4-dihydro-2H-benzo[b][1,4]oxazin-7-yl)sulfo-nyl)benzamide] | 464 nM |
| CC1(C)CCC(CN2CCN(c3ccc(C(=O)NS(=O)(=O)c4cc5c(c([N+](=O)[O-])c4)N[C@@H](c4ccccn4)CO5)c(Oc4cnc5[nH]ccc5c4)c3)CC2)=C(c2ccc(Cl)cc2)C1 [Example 2-171, (S)-2-((1H-pyrrolo[2,3-b]pyridin-5-yl)oxy)-4-(4-((4′-chloro-5,5-dimethyl-3,4,5,6-tetra-hydro-[1,1′biphenyl]-2-yl)methyl)piperazin-1-yl)-N-((5-nitro-3-(pyridin-2-yl)-3,4-di-hydro-2H-benzo[b][1,4]oxazin-7-yl)sulfonyl) benzamide] | 302 nM |
| CC1(C)CCC(CN2CCN(c3ccc(C(=O)NS(=O)(=O)c4cc5c(c([N+](=O)[O-])c4)N[C@@H](c4ccccc4)CO5)c(Oc4cnc5[nH]ccc5c4)c3)CC2)=C(c2ccc(Cl)cc2)C1 [Example 2-172, (S)-2-((1H-pyrrolo[2,3-b]pyridin-5-yl)oxy)-4-(4-((4′-chloro-5,5-dimethyl-3,4,5,6-tetra-hydro[1,1′-biphenyl]-2-yl)methyl)piperazin-1-yl)-N-((5-nitro-3-phenyl-3,4-dihydro-2H-benzo[b][1,4]oxazin-7-yl)sulfonyl)benza-mide] | 14 nM |
| CC1(C)CCC(CN2CCN(c3ccc(C(=O)NS(=O)(=O)c4cc5c(c([N+](=O)[O-])c4)N[C@@H](c4ccc(F)cc4)CO5)c(Oc4cnc5[nH]ccc5c4)c3)CC2)=C(c2ccc(Cl)cc2)C1 [Example 2-173, (S)-2-((1H-pyrrolo[2,3-b]pyridin-5-yl)oxy)-4-(4-((4′-chloro-5,5-dimethyl-3,4,5,6-tetra-hydro-[1,1′-biphenyl]-2-yl)methyl)piperazin-1-yl)-N-((3-(4-fluorophenyl)-5-nitro-3,4-dihydro-2H-benzo[b][1,4]oxazin-7-yl)sulfo-nyl)benzamide] | 24 nM |
| CC1(C)CCC(CN2CCN(c3ccc(C(=O)NS(=O)(=O)c4cc5c(c([N+](=O)[O-])c4)N[C@@H](c4ccc(Cl)cc4)CO5)c(Oc4cnc5[nH]ccc5c4)c3)CC2)=C(c2ccc(Cl)cc2)C1 [Example 2-174, (S)-2-((1H-pyrrolo[2,3-b]pyridin-5-yl)oxy)-4-(4-((4′-chloro-5,5-dimethyl-3,4,5,6-tetra-hydro-[1,1′-biphenyl]-2-yl)methyl)piperazin-1-yl)-N-((3-(4-chlorophenyl)-5-nitro-3,4-dihydro-2H-benzo[b][1,4]oxazin-7-yl)sulfo-nyl)benzamide] | 23 nM |
| CC1(C)CCC(CN2CCN(c3ccc(C(=O)NS(=O)(=O)c4cc5c(c([N+](=O)[O-])c4)N[C@H](c4ccc(F)cn4)CO5)c(Oc4cnc5[nH]ccc5c4)c3)CC2)=C(c2ccc(Cl)cc2)C1 [Example 2-178, (R)-2-((1H-pyrrolo[2,3-b]pyridin-5-yl)oxy)-4-(4-((4′-chloro-5,5-dimethyl-3,4,5,6-tetra-hydro-[1,1′-biphenyl]-2-yl)methyl)piperazin-1-yl)-N-((3-(5-fluoropyridin-2-yl)-5-nitro-3,4-dihydro-2H-benzo[b][1,4]oxazin-7-yl)sulfonyl)benzamide] | 28 nM |
| CC1(C)CCC(CN2CCN(c3ccc(C(=O)NS(=O)(=O)c4cc5c(c([N+](=O)[O-])c4)N[C@@H](Cc4ccccc4Cl)CO5)c(Oc4cnc5[nH]ccc5c4)c3)CC2)=C(c2ccc(Cl)cc2)C1 [Example 2-191, (S)-2-((1H-pyrrolo[2,3-b]pyridin-5-yl)oxy)-4-(4-((4′-chloro-5,5-dimethyl-3,4,5,6-tetra-hydro-[1,1′-biphenyl]-2-yl)methyl)piperazin-1-yl)-N-((3-(2-chlorobenzyl)-5-nitro-3,4-dihydro-2H-benzo[b][1,4]oxazin-7-yl)sulfo-nyl)benzamide] | 153 nM |
| CC1(C)CCC(CN2CCN(c3ccc(C(=O)NS(=O)(=O)c4cc5c(c([N+](=O)[O-])c4)N[C@@H](c4ccc(F)cn4)CO5)c(Oc4cnc5[nH]ccc5c4)c3)CC2)=C(c2ccc(Cl)cc2)C1 [Example 2-197, (S)-2-((1H-pyrrolo[2,3-b]pyridin-5-yl)oxy)-4-(4-((4′-chloro-5,5-dimethyl-3,4,5,6-tetra-hydro-[1,1′-biphenyl]-2-yl)methyl)piperazin-1-yl)-N-((3-(5-fluoropyridin-2-yl)-5-nitro-3,4-dihydro-2H-benzo[b][1,4]oxazin-7-yl)sulfonyl)benzamide] | 412 nM |
| CC1(C)CCC(CN2CCN(c3ccc(C(=O)NS(=O)(=O)c4cc5c(c([N+](=O)[O-])c4)N[C@@H](c4ccc(Cl)cn4)CO5)c(Oc4cnc5[nH]ccc5c4)c3)CC2)=C(c2ccc(Cl)cc2)C1 [Example 2-198B, (S)-2-((1H-pyrrolo[2,3-b]pyridin-5-yl)oxy)-4-(4-((4′-chloro-5,5-dimethyl-3,4,5,6-tetra-hydro-[1,1′-biphenyl]-2-yl)methyl)piperazin-1-yl)-N-((3-(5-chloropyridin-2-yl)-5-nitro-3,4-dihydro-2H-benzo[b][1,4]oxazin-7-yl)sulfonyl)benzamide] | 444 nM |
